According to ChEMBL document CHEMBL5724914, “Linking interpersonal differences in gut microbiota composition and drug biotransformation activity” (2024):

Assay: (§1) The drug is tested on Z-029 corresponding to rat gut metagenome with ENA study accession number: PRJEB37062 and ENA sample accession number: ERS12561828 for biotransformation under anaerobic condition. The drug concentrations were measured over 9 timepoints collected between 0 and 24 hours of incubation by liquid-chromatography-coupled mass spectrometry (LC–MS)
Conditions: 2 µM
Also: call rule not given here.

| Bacterial Biotransformation | Structure (SMILES) |
| --- | --- |
| Compound NOT metabolized | CN(C/C=C/C#CC(C)(C)C)Cc1cccc2ccccc12 [TERBINAFINE] |

Assay: as §1, with “on Z-028” for “on Z-029”, “to mouse” for “to rat”, “number: ERS12561827” for “number: ERS12561828”
Conditions: 2 µM

| Bacterial Biotransformation | Structure (SMILES) |
| --- | --- |
| Compound NOT metabolized | O=C1N=C([O-])NC1(c1ccccc1)c1ccccc1.[Na+] [PHENYTOIN SODIUM] |
| Compound NOT metabolized | CN(C/C=C/C#CC(C)(C)C)Cc1cccc2ccccc12 [TERBINAFINE] |

Assay: as §1, with “on Z-020” for “on Z-029”, “to rabbit” for “to rat”, “number: ERS12561819” for “number: ERS12561828”
Conditions: 2 µM

| Bacterial Biotransformation | Structure (SMILES) |
| --- | --- |
| Compound NOT metabolized | O=C1N=C([O-])NC1(c1ccccc1)c1ccccc1.[Na+] [PHENYTOIN SODIUM] |
| Compound NOT metabolized | CN(C/C=C/C#CC(C)(C)C)Cc1cccc2ccccc12 [TERBINAFINE] |

| Structure (SMILES) | Bacterial Biotransformation |
| --- | --- |
| N[C@@H](Cc1ccc(N(CCCl)CCCl)cc1)C(=O)O | Compound metabolized |

Assay: as §1, with “Z-007” for “Z-029”, “ERS12561807” for “ERS12561828”
Conditions: 2 µM

| Bacterial Biotransformation | Structure (SMILES) |
| --- | --- |
| Compound NOT metabolized | O=C1N=C([O-])NC1(c1ccccc1)c1ccccc1.[Na+] [PHENYTOIN SODIUM] |
| Compound NOT metabolized | CN(C/C=C/C#CC(C)(C)C)Cc1cccc2ccccc12 [TERBINAFINE] |

Assay: as §1, with “on WLS-240” for “on Z-029”, “to human” for “to rat”, “number: ERS12561773” for “number: ERS12561828”
Conditions: 2 µM

| Bacterial Biotransformation | Structure (SMILES) |
| --- | --- |
| Compound metabolized | O=C1N=C([O-])NC1(c1ccccc1)c1ccccc1.[Na+] [PHENYTOIN SODIUM] |
| Compound NOT metabolized | CN(C/C=C/C#CC(C)(C)C)Cc1cccc2ccccc12 [TERBINAFINE] |

| Structure (SMILES) | Bacterial Biotransformation |
| --- | --- |
| N[C@@H](Cc1ccc(N(CCCl)CCCl)cc1)C(=O)O | Compound NOT metabolized |

Assay: as §1, with “on WLS-220” for “on Z-029”, “to human” for “to rat”, “number: ERS12561769” for “number: ERS12561828”
Conditions: 2 µM

| Bacterial Biotransformation | Structure (SMILES) |
| --- | --- |
| Compound metabolized | O=C1N=C([O-])NC1(c1ccccc1)c1ccccc1.[Na+] [PHENYTOIN SODIUM] |
| Compound NOT metabolized | CN(C/C=C/C#CC(C)(C)C)Cc1cccc2ccccc12 [TERBINAFINE] |

| Structure (SMILES) | Bacterial Biotransformation |
| --- | --- |
| N[C@@H](Cc1ccc(N(CCCl)CCCl)cc1)C(=O)O | Compound metabolized |

Assay: as §1, with “on WLS-170” for “on Z-029”, “to human” for “to rat”, “number: ERS12561762” for “number: ERS12561828”
Conditions: 2 µM

| Bacterial Biotransformation | Structure (SMILES) |
| --- | --- |
| Compound metabolized | O=C1N=C([O-])NC1(c1ccccc1)c1ccccc1.[Na+] [PHENYTOIN SODIUM] |
| Compound metabolized | CN(C/C=C/C#CC(C)(C)C)Cc1cccc2ccccc12 [TERBINAFINE] |

| Structure (SMILES) | Bacterial Biotransformation |
| --- | --- |
| N[C@@H](Cc1ccc(N(CCCl)CCCl)cc1)C(=O)O | Compound metabolized |

Assay: as §1, with “on WLS-077” for “on Z-029”, “to human” for “to rat”, “number: ERS12561750” for “number: ERS12561828”
Conditions: 2 µM

| Structure (SMILES) | Bacterial Biotransformation |
| --- | --- |
| N[C@@H](Cc1ccc(N(CCCl)CCCl)cc1)C(=O)O | Compound metabolized |
| O=C1N=C([O-])NC1(c1ccccc1)c1ccccc1.[Na+] [PHENYTOIN SODIUM] | Compound NOT metabolized |

Assay: as §1, with “on WLS-052” for “on Z-029”, “to human” for “to rat”, “number: ERS12561747” for “number: ERS12561828”
Conditions: 2 µM

| Structure (SMILES) | Bacterial Biotransformation |
| --- | --- |
| N[C@@H](Cc1ccc(N(CCCl)CCCl)cc1)C(=O)O | Compound metabolized |
| O=C1N=C([O-])NC1(c1ccccc1)c1ccccc1.[Na+] [PHENYTOIN SODIUM] | Compound metabolized |

Conditions: human gut metagenome, 24 h, 2 µM

| Bacterial Biotransformation | Structure (SMILES) |
| --- | --- |
| Compound metabolized | O=C1N=C([O-])NC1(c1ccccc1)c1ccccc1.[Na+] [PHENYTOIN SODIUM] |
| Compound metabolized | CN(C/C=C/C#CC(C)(C)C)Cc1cccc2ccccc12 [TERBINAFINE] |

| Structure (SMILES) | Bacterial Biotransformation |
| --- | --- |
| N[C@@H](Cc1ccc(N(CCCl)CCCl)cc1)C(=O)O | Compound NOT metabolized |

Conditions: human gut metagenome, 24 h, 2 µM
Remark: another data set of the same source

| Structure (SMILES) | Bacterial Biotransformation |
| --- | --- |
| N[C@@H](Cc1ccc(N(CCCl)CCCl)cc1)C(=O)O | Compound NOT metabolized |
| O=C1N=C([O-])NC1(c1ccccc1)c1ccccc1.[Na+] [PHENYTOIN SODIUM] | Compound NOT metabolized |

Conditions: human gut metagenome, 24 h, 2 µM
Remark: another data set of the same source

| Bacterial Biotransformation | Structure (SMILES) |
| --- | --- |
| Compound NOT metabolized | O=C1N=C([O-])NC1(c1ccccc1)c1ccccc1.[Na+] [PHENYTOIN SODIUM] |
| Compound NOT metabolized | CN(C/C=C/C#CC(C)(C)C)Cc1cccc2ccccc12 [TERBINAFINE] |

| Structure (SMILES) | Bacterial Biotransformation |
| --- | --- |
| N[C@@H](Cc1ccc(N(CCCl)CCCl)cc1)C(=O)O | Compound metabolized |

Conditions: human gut metagenome, 24 h, 2 µM
Remark: another data set of the same source

| Bacterial Biotransformation | Structure (SMILES) |
| --- | --- |
| Compound metabolized | O=C1N=C([O-])NC1(c1ccccc1)c1ccccc1.[Na+] [PHENYTOIN SODIUM] |
| Compound NOT metabolized | CN(C/C=C/C#CC(C)(C)C)Cc1cccc2ccccc12 [TERBINAFINE] |

| Structure (SMILES) | Bacterial Biotransformation |
| --- | --- |
| N[C@@H](Cc1ccc(N(CCCl)CCCl)cc1)C(=O)O | Compound metabolized |

Conditions: human gut metagenome, 24 h, 2 µM
Remark: another data set of the same source

| Bacterial Biotransformation | Structure (SMILES) |
| --- | --- |
| Compound NOT metabolized | O=C1N=C([O-])NC1(c1ccccc1)c1ccccc1.[Na+] [PHENYTOIN SODIUM] |
| Compound NOT metabolized | CN(C/C=C/C#CC(C)(C)C)Cc1cccc2ccccc12 [TERBINAFINE] |

| Structure (SMILES) | Bacterial Biotransformation |
| --- | --- |
| N[C@@H](Cc1ccc(N(CCCl)CCCl)cc1)C(=O)O | Compound metabolized |

Conditions: human gut metagenome, 24 h, 2 µM
Remark: another data set of the same source

| Bacterial Biotransformation | Structure (SMILES) |
| --- | --- |
| Compound metabolized | O=C1N=C([O-])NC1(c1ccccc1)c1ccccc1.[Na+] [PHENYTOIN SODIUM] |
| Compound NOT metabolized | CN(C/C=C/C#CC(C)(C)C)Cc1cccc2ccccc12 [TERBINAFINE] |

Conditions: human gut metagenome, 24 h, 2 µM
Remark: another data set of the same source

| Bacterial Biotransformation | Structure (SMILES) |
| --- | --- |
| Compound NOT metabolized | O=C1N=C([O-])NC1(c1ccccc1)c1ccccc1.[Na+] [PHENYTOIN SODIUM] |
| Compound NOT metabolized | CN(C/C=C/C#CC(C)(C)C)Cc1cccc2ccccc12 [TERBINAFINE] |

| Structure (SMILES) | Bacterial Biotransformation |
| --- | --- |
| N[C@@H](Cc1ccc(N(CCCl)CCCl)cc1)C(=O)O | Compound metabolized |

Conditions: human gut metagenome, 24 h, 2 µM
Remark: another data set of the same source

| Bacterial Biotransformation | Structure (SMILES) |
| --- | --- |
| Compound metabolized | O=C1N=C([O-])NC1(c1ccccc1)c1ccccc1.[Na+] [PHENYTOIN SODIUM] |
| Compound NOT metabolized | CN(C/C=C/C#CC(C)(C)C)Cc1cccc2ccccc12 [TERBINAFINE] |

| Structure (SMILES) | Bacterial Biotransformation |
| --- | --- |
| N[C@@H](Cc1ccc(N(CCCl)CCCl)cc1)C(=O)O | Compound metabolized |

Conditions: human gut metagenome, 24 h, 2 µM
Remark: another data set of the same source

| Bacterial Biotransformation | Structure (SMILES) |
| --- | --- |
| Compound metabolized | O=C1N=C([O-])NC1(c1ccccc1)c1ccccc1.[Na+] [PHENYTOIN SODIUM] |
| Compound NOT metabolized | CN(C/C=C/C#CC(C)(C)C)Cc1cccc2ccccc12 [TERBINAFINE] |

| Structure (SMILES) | Bacterial Biotransformation |
| --- | --- |
| N[C@@H](Cc1ccc(N(CCCl)CCCl)cc1)C(=O)O | Compound NOT metabolized |

Conditions: human gut metagenome, 24 h, 2 µM
Remark: another data set of the same source

| Bacterial Biotransformation | Structure (SMILES) |
| --- | --- |
| Compound metabolized | O=C1N=C([O-])NC1(c1ccccc1)c1ccccc1.[Na+] [PHENYTOIN SODIUM] |
| Compound NOT metabolized | CN(C/C=C/C#CC(C)(C)C)Cc1cccc2ccccc12 [TERBINAFINE] |

| Structure (SMILES) | Bacterial Biotransformation |
| --- | --- |
| N[C@@H](Cc1ccc(N(CCCl)CCCl)cc1)C(=O)O | Compound metabolized |
